Publication PMC11755709, “Cytotoxicity and Oxidative Stress Induced by Technology-Critical Elements versus Traditional Metal Contaminants: An In Vitro Bioassay Study” (Environmental Science & Technology, 2025)
pIC50: −log10 of the molar value. Entries after “also recorded” stand apart in the source; their conditions may differ. Where two headings read alike, the source gives them in different places.

Legend:
[1] = test system: nuclear factor erythroid 2-related factor 2 (Nrf2) pathway; format: cell-based, human; conditions: for ECIR1.5 (effective concentration at an induction ratio of 1.5), Nrf2 activity: MCF7AREc32, 24 h exposure, linear regression; for induction of oxidative stress (Nrf2 activity exceeding a 1.5 induction ratio): MCF7AREc32, noncytotoxic concentrations
MCF7AREc32 cell line = conditions: for IC70, cytotoxicity / cytotoxicity (cell viability <80% vs vehicle control): MCF7AREc32, MTS test; for IC70, cytotoxicity: 24 h exposure, 70% response relative to vehicle control; for cytotoxicity (cell viability <80% vs vehicle control): up to 10 or 100 mg/L
[2] = test system: AR-EcoScreen GR-KO-M1 cell line; conditions: for cytotoxicity (cell viability <80% vs vehicle control) / IC70, cytotoxicity: AR-EcoScreen GR-KO-M1, MTS test; for cytotoxicity (cell viability <80% vs vehicle control): up to 10 or 100 mg/L; for pIC50: read-out: interpolated IC50, cytotoxicity, AR-EcoScreen, converted to mmol/L
DR-EcoScreen cell line = conditions: for IC70, cytotoxicity / cytotoxicity (cell viability <80% vs vehicle control): MTS test; for cytotoxicity (cell viability <80% vs vehicle control): up to 10 or 100 mg/L
human bone osteoblasts [3] = test system: human bone osteoblasts; set-up: method as in Al-Ghafari et al. [55]; conditions: ref Al-Ghafari et al. [55], read-out: IC50 (MTT assay); cited from earlier work
human bone osteoblasts [4] = test system: human bone osteoblasts; set-up: method as in Al-Ghafari et al. [55]; conditions: ref Al-Ghafari et al. [55], read-out: IC50 (LDH assay); cited from earlier work
VM7Luc4E2 cell line = conditions: VM7Luc4E2, ATPase test; for cytotoxicity (cell viability <80% vs vehicle control): up to 10 or 100 mg/L; for IC80: read-out: IC80, cytotoxicity
[5] = test system: rat NR8383 alveolar macrophages; set-up: method as in Huang et al. [69]; conditions: highest tested 200 mg/L, ref Huang et al. [69]; cited from earlier work

[As] [As, arsenic, reference compound]
ECIR1.5 (effective concentration at an induction ratio of 1.5), Nrf2 activity [1]: 0.11 mg/L | induction of oxidative stress (Nrf2 activity exceeding a 1.5 induction ratio) [1]: found to induce oxidative stress | IC70, cytotoxicity (MCF7AREc32 cell line): 8.1 µg/mL | cytotoxicity (cell viability <80% vs vehicle control) (MCF7AREc32 cell line): Cytotoxicity is shown; also recorded: cytotoxicity was identified | cytotoxicity (cell viability <80% vs vehicle control) [2]: Cytotoxicity is shown; also recorded: cytotoxicity was identified | pIC50 [2]: 3.77 | IC70, cytotoxicity (DR-EcoScreen cell line; 24 h exposure): 0.83 µg/mL | cytotoxicity (cell viability <80% vs vehicle control) (DR-EcoScreen cell line): Cytotoxicity is shown; also recorded: cytotoxicity was identified | pIC50 (DR-EcoScreen cell line; read-out: interpolated IC50, cytotoxicity, converted to mmol/L): 4.85

[Cd] [Cd, cadmium]
ECIR1.5 (effective concentration at an induction ratio of 1.5), Nrf2 activity [1]: 0.24 mg/L | induction of oxidative stress (Nrf2 activity exceeding a 1.5 induction ratio) [1]: found to induce oxidative stress | IC70, cytotoxicity (MCF7AREc32 cell line): 9.1 µg/mL | cytotoxicity (cell viability <80% vs vehicle control) (MCF7AREc32 cell line): Cytotoxicity is shown; also recorded: cytotoxicity was identified | pIC50 (MCF7AREc32 cell line; read-out: interpolated IC50, cytotoxicity, MCF7AREc32, converted to mmol/L): 4.06 | IC70, cytotoxicity ([2]; 24 h exposure): 2.6 mg/L | cytotoxicity (cell viability <80% vs vehicle control) [2]: Cytotoxicity is shown; also recorded: cytotoxicity was identified | pIC50 [2]: 4.28 | cytotoxicity (cell viability <80% vs vehicle control) (DR-EcoScreen cell line): Cytotoxicity is shown; also recorded: cytotoxicity was identified | pIC50 (human bone osteoblasts [3]): 4.49 | pIC50 (human bone osteoblasts [4]): 4.20

[Ga] [Ga, gallium]
ECIR1.5 (effective concentration at an induction ratio of 1.5), Nrf2 activity [1]: 0.83 mg/L | induction of oxidative stress (Nrf2 activity exceeding a 1.5 induction ratio) [1]: found to induce oxidative stress | IC70, cytotoxicity ([2]; 24 h exposure): 50 mg/L | IC70, cytotoxicity ([2]; converted from mg/L): 0.72 mmol/L | cytotoxicity (cell viability <80% vs vehicle control) [2]: Cytotoxicity is shown; also recorded: Cytotoxic effects were most clearly observed | IC70, cytotoxicity (DR-EcoScreen cell line; 24 h exposure): 100 µg/mL | IC70, cytotoxicity (DR-EcoScreen cell line; converted from mg/L): 1400 µM | cytotoxicity (cell viability <80% vs vehicle control) (DR-EcoScreen cell line): Cytotoxicity is shown; also recorded: Cytotoxic effects were most clearly observed | IC70, cytotoxicity (VM7Luc4E2 cell line; 24 h exposure): 52 µg/mL | IC70, cytotoxicity (VM7Luc4E2 cell line; converted from mg/L): 750 µM | cytotoxicity (cell viability <80% vs vehicle control) (VM7Luc4E2 cell line): Cytotoxicity is shown; also recorded: Cytotoxic effects were most clearly observed

[Gd] [Gd, Gadolinium]
IC80, cytotoxicity (VM7Luc4E2 cell line; 24 h exposure): 3.7 µg/mL | cytotoxicity (cell viability <80% vs vehicle control) (VM7Luc4E2 cell line): Cytotoxicity is shown; also recorded: induce cytotoxic effects | IC80 (VM7Luc4E2 cell line; converted from mg/L): 24 µM

[Ge] [Ge, germanium]
cytotoxicity (cell viability <80% vs vehicle control) (MCF7AREc32 cell line): Neither Ge nor In exhibited any cytotoxicity | cytotoxicity (cell viability <80% vs vehicle control) [2]: Neither Ge nor In exhibited any cytotoxicity | cytotoxicity (cell viability <80% vs vehicle control) (DR-EcoScreen cell line): Neither Ge nor In exhibited any cytotoxicity | cytotoxicity (cell viability <80% vs vehicle control) (VM7Luc4E2 cell line): Neither Ge nor In exhibited any cytotoxicity

[Nd+3].[Nd+3].[O-2].[O-2].[O-2] [Nd2O3]
concentration up to which no noticeable cytotoxicity was observed [5]: 6250 ng/mL

[Nd] [Nd, Neodymium]
IC70, cytotoxicity ([2]; 24 h exposure): 26 mg/L | IC70, cytotoxicity ([2]; converted from mg/L): 0.18 mmol/L | cytotoxicity (cell viability <80% vs vehicle control) [2]: Cytotoxicity is shown; also recorded: Cytotoxic effects were most clearly observed | IC70, cytotoxicity (DR-EcoScreen cell line; 24 h exposure): 31 µg/mL | IC70, cytotoxicity (DR-EcoScreen cell line; converted from mg/L): 210 µM | cytotoxicity (cell viability <80% vs vehicle control) (DR-EcoScreen cell line): Cytotoxicity is shown; also recorded: Cytotoxic effects were most clearly observed | IC70, cytotoxicity (VM7Luc4E2 cell line; 24 h exposure): 24 µg/mL | IC70, cytotoxicity (VM7Luc4E2 cell line; converted from mg/L): 170 µM | cytotoxicity (cell viability <80% vs vehicle control) (VM7Luc4E2 cell line): Cytotoxicity is shown; also recorded: Cytotoxic effects were most clearly observed

[Pb] [Pb, lead]
pIC50 (human bone osteoblasts [3]): 4.26 | pIC50 (human bone osteoblasts [4]): 4.10

[Te] [Te, tellurium]
IC70, cytotoxicity ([2]; 24 h exposure): 0.28 mg/L | IC70, cytotoxicity ([2]; converted from mg/L): 2.2 × 10^–3 mmol/L | cytotoxicity (cell viability <80% vs vehicle control) [2]: Cytotoxicity is shown; also recorded: Cytotoxic effects were most clearly observed | IC70, cytotoxicity (DR-EcoScreen cell line; 24 h exposure): 8.7 µg/mL | IC70, cytotoxicity (DR-EcoScreen cell line; converted from mg/L): 68 µM | cytotoxicity (cell viability <80% vs vehicle control) (DR-EcoScreen cell line): Cytotoxicity is shown; also recorded: Cytotoxic effects were most clearly observed | IC70, cytotoxicity (VM7Luc4E2 cell line; 24 h exposure): 1.5 µg/mL | IC70, cytotoxicity (VM7Luc4E2 cell line; converted from mg/L): 12 µM | cytotoxicity (cell viability <80% vs vehicle control) (VM7Luc4E2 cell line): Cytotoxicity is shown; also recorded: Cytotoxic effects were most clearly observed

[Tl] [Tl, thallium]
cytotoxicity (cell viability <80% vs vehicle control) (MCF7AREc32 cell line): Cytotoxicity is shown; also recorded: Cytotoxicity for Tl was observed | IC80, cytotoxicity (VM7Luc4E2 cell line; 24 h exposure): 9.0 µg/mL | cytotoxicity (cell viability <80% vs vehicle control) (VM7Luc4E2 cell line): Cytotoxicity is shown; also recorded: more evident | IC80 (VM7Luc4E2 cell line; converted from mg/L): 44 µM

[Yb] [Yb, Ytterbium]
IC80, cytotoxicity (VM7Luc4E2 cell line; 24 h exposure): 33 µg/mL | cytotoxicity (cell viability <80% vs vehicle control) (VM7Luc4E2 cell line): Cytotoxicity is shown; also recorded: induce cytotoxic effects | IC80 (VM7Luc4E2 cell line; converted from mg/L): 190 µM

CC(C)(C)c1cc(O)ccc1O [tBHQ, tert-butylhydroquinone]
ECIR1.5 (effective concentration at an induction ratio of 1.5), Nrf2 activity [1]: 0.27 mg/L
